In ChEMBL document CHEMBL1201862, “PubChem BioAssay data set” (2004):
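Grown in 96-well plates, cells were treated for 48 hours with each compound at five concentrations. Insufficient inhibition: endpoint recorded as highest concentration tested. GI50 is the concentration that inhibits growth by half.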 The source made the active and inactive calls. No stated cut-off is given here; in the data, active = GI50 up to about 1.1 µM and inactive = higher. Where a SMILES comes first, the peptide text is derived from it. [ ]: non-standard residue; d: D form. The star is where a group is joined. Chg = N[CH](C(=O)O)C1CCCCC1; Cbz = O=C(OCc1ccccc1)*; OBn = c1ccc(CO*)cc1

Experiments:
Test in all cases: growth of human tumour cells (NCI), 48 h
[1] = tested on: CAKI-1
[2] = tested on: CCRF-CEM
[3] = tested on: DU-145
[4] = tested on: HCT-116
[5] = tested on: HCT-15
[6] = tested on: HOP-62
[7] = tested on: LOX IMVI
[8] = tested on: M14
[9] = tested on: MDA-MB-231
[10] = tested on: MDA-MB-435
[11] = tested on: NCI-H226
[12] = tested on: OVCAR-3
[13] = tested on: OVCAR-4
[14] = tested on: PC-3
[15] = tested on: SK-MEL-5
[16] = tested on: U-251
[17] = tested on: UACC-257
[18] = tested on: UACC-62
[19] = tested on: UO-31

| Compound | GI50 [1] | GI50 [2] | GI50 [3] | GI50 [4] | GI50 [5] [µM] | GI50 [6] | GI50 [7] | GI50 [8] | GI50 [9] | GI50 [10] | GI50 [11] | GI50 [12] | GI50 [13] | GI50 [14] | GI50 [15] | GI50 [16] | GI50 [17] | GI50 [18] | GI50 [19] |
| --- | --- | --- | --- | --- | --- | --- | --- | --- | --- | --- | --- | --- | --- | --- | --- | --- | --- | --- | --- |
| COc1cc(C)cc(C(=O)OCc2ccccc2)c1C1=C(Cl)C(=O)C(Cl)=CC1=O | > 10 µM (inactive) | 2.08 µM (inactive) | > 10 µM (inactive) | > 10 µM (inactive) | > 10 | > 10 µM (inactive) | > 10 µM (inactive) | > 10 µM (inactive) | > 10 µM (inactive) | > 10 µM (inactive) | > 10 µM (inactive) | 4.6 µM (inactive) | > 5.13 µM (inactive) | > 10 µM (inactive) | > 10 µM (inactive) | > 10 µM (inactive) | > 9.02 µM (inactive) | > 10 µM (inactive) | 3.25 µM (inactive) |
| CCOC(=O)C1C(=O)CC(O)(c2ccccc2)C(C(=O)OCC)C1c1ccc(N(C)C)cc1 (stereo not given) | 51.2 µM (inactive) | 17.3 µM (inactive) | 57.1 µM (inactive) | 23.8 µM (inactive) | 34.7 | 30.8 µM (inactive) | 27.5 µM (inactive) | 35.6 µM (inactive) | 28.2 µM (inactive) | 5.04 µM (inactive) | 51.4 µM (inactive) | 24 µM (inactive) | 59.2 µM (inactive) | 18.3 µM (inactive) | 22.3 µM (inactive) | 24.7 µM (inactive) | 63.8 µM (inactive) | 33.4 µM (inactive) | 49.8 µM (inactive) |
| CC1CC[C@@]2(OC1)OC1C[C@H]3[C@@H]4CC[C@H]5CC(OC6OC(CO)C(OC7OC(CO)C(O)C(O)C7O)C(O)C6O)CCC5(C)[C@H]4CCC3(C)C1[C@@H]2C (stereo not given in full) | 8.49 µM (inactive) | 9.16 µM (inactive) | 8.3 µM (inactive) | 7.53 µM (inactive) | 12.6 | 6.03 µM (inactive) | 4.58 µM (inactive) | 8.89 µM (inactive) | 9.1 µM (inactive) | 9.25 µM (inactive) | 8.81 µM (inactive) | 6.1 µM (inactive) | 8.81 µM (inactive) | 7.45 µM (inactive) | 8.69 µM (inactive) | 8.99 µM (inactive) | 9.64 µM (inactive) | 10.1 µM (inactive) | 11.1 µM (inactive) |
| COc1cc(/C=C2/SC(c3ccccc3)N(c3ccc(Cl)cc3)C2=O)cc(OC)c1OC (stereo not given) | > 51.2 µM (inactive) | 2.84 µM (inactive) | > 100 µM (inactive) | 0.897 µM (active) | 8.13 | > 29.4 µM (inactive) | 50.8 µM (inactive) | 0.964 µM (active) | > 100 µM (inactive) | 0.436 µM (active) | > 100 µM (inactive) | 80.5 µM (inactive) | 7.98 µM (inactive) | 28.6 µM (inactive) | 0.638 µM (active) | > 72.6 µM (inactive) | 47.2 µM (inactive) | 2.02 µM (inactive) | 10.9 µM (inactive) |
| NC1=Nc2cc(C(F)(F)F)ccc2Sc2nc3ccccc3n21 | 84.9 µM (inactive) | 2.64 µM (inactive) | > 94.6 µM (inactive) | 3.73 µM (inactive) | > 100 | > 60 µM (inactive) | 4.85 µM (inactive) | 3.98 µM (inactive) | 38.1 µM (inactive) | > 100 µM (inactive) | 12.1 µM (inactive) | 33.1 µM (inactive) | 17.7 µM (inactive) | 10.3 µM (inactive) | 6.73 µM (inactive) | 5.56 µM (inactive) | 41.2 µM (inactive) | 57.4 µM (inactive) | > 20.5 µM (inactive) |
| CN(C)c1ccc(/C=C(\C#N)C(N)=C(C#N)C#N)cc1 | > 100 µM (inactive) | > 100 µM (inactive) | > 100 µM (inactive) | > 100 µM (inactive) | > 100 | > 100 µM (inactive) | > 100 µM (inactive) | 30 µM (inactive) | > 100 µM (inactive) | > 100 µM (inactive) | > 100 µM (inactive) | > 100 µM (inactive) | > 100 µM (inactive) | > 100 µM (inactive) | > 100 µM (inactive) | > 100 µM (inactive) | 97.9 µM (inactive) | 94 µM (inactive) | > 100 µM (inactive) |
| COC(=O)C(NC(=O)C(CC(=O)OCc1ccccc1)NC(=O)OCc1ccccc1)C1CCCCC1 (stereo not given) (Cbz-Asp(OBn)-[Chg]-OMe; configuration not given here) | > 100 µM (inactive) | > 100 µM (inactive) | > 100 µM (inactive) | > 100 µM (inactive) | > 100 | > 100 µM (inactive) | > 100 µM (inactive) | > 100 µM (inactive) | 84.3 µM (inactive) | > 100 µM (inactive) | > 100 µM (inactive) | > 100 µM (inactive) | > 100 µM (inactive) | > 100 µM (inactive) | 0.195 µM (active) | > 100 µM (inactive) | > 100 µM (inactive) | > 100 µM (inactive) | 69.7 µM (inactive) |
| Cn1cc(S(=O)(=O)NC(=O)Nc2ccc(Cl)cc2)c2ccccc21 | 15.5 µM (inactive) | > 100 µM (inactive) | 49.2 µM (inactive) | 32.4 µM (inactive) | 4.5 | 15.1 µM (inactive) | 93.1 µM (inactive) | > 100 µM (inactive) | > 100 µM (inactive) | 52.1 µM (inactive) | 83.8 µM (inactive) | > 100 µM (inactive) | > 100 µM (inactive) | 43.9 µM (inactive) | 73.5 µM (inactive) | 41.9 µM (inactive) | > 100 µM (inactive) | 12.4 µM (inactive) | 44.8 µM (inactive) |
| Nc1ccc2c(=O)cc(-c3cccs3)[nH]c2n1 | 6.67 µM (inactive) | 2.21 µM (inactive) | 5.9 µM (inactive) | 1.25 µM (inactive) | 1.29 | 7.31 µM (inactive) | 1.07 µM (active) | 1.6 µM (inactive) | 11.8 µM (inactive) | 0.285 µM (active) | 2.42 µM (inactive) | 3.32 µM (inactive) | > 35.7 µM (inactive) | 1.74 µM (inactive) | 1.03 µM (active) | 2.75 µM (inactive) | 5.9 µM (inactive) | 2.3 µM (inactive) | 3.54 µM (inactive) |
| O=C1CC2(CCN(CC3COc4ccccc4O3)CC2)C(=O)N1N1CCCCCC1 (stereo not given) | > 100 µM (inactive) | 29.4 µM (inactive) | 32.7 µM (inactive) | 52.6 µM (inactive) | > 100 | > 100 µM (inactive) | 28.9 µM (inactive) | 69.3 µM (inactive) | > 100 µM (inactive) | 40 µM (inactive) | 51.9 µM (inactive) | > 100 µM (inactive) | 33.6 µM (inactive) | 27.5 µM (inactive) | 22.7 µM (inactive) | > 100 µM (inactive) | 13.9 µM (inactive) | > 100 µM (inactive) | > 100 µM (inactive) |
| O=c1[nH]c(NCc2cccnc2)nc2[nH]cnc12 | > 100 µM (inactive) | > 100 µM (inactive) | > 100 µM (inactive) | > 100 µM (inactive) | > 100 | > 100 µM (inactive) | > 100 µM (inactive) | > 100 µM (inactive) | > 100 µM (inactive) | > 100 µM (inactive) | > 100 µM (inactive) | > 100 µM (inactive) | > 100 µM (inactive) | > 100 µM (inactive) | > 100 µM (inactive) | > 100 µM (inactive) | > 100 µM (inactive) | > 100 µM (inactive) | > 100 µM (inactive) |
| O=C1CC(Sc2nc3ccc(I)cc3c(=O)n2Cc2ccccc2)C(=O)NN1 (stereo not given) | 2.81 µM (inactive) | 8.28 µM (inactive) | 20 µM (inactive) | 15.7 µM (inactive) | 15.5 | 17.4 µM (inactive) | 3.18 µM (inactive) | 19.6 µM (inactive) | 15.6 µM (inactive) | 17.7 µM (inactive) | 5.89 µM (inactive) | 16 µM (inactive) | 17.4 µM (inactive) | 17 µM (inactive) | 16.2 µM (inactive) | 15.9 µM (inactive) | 18.3 µM (inactive) | 15.3 µM (inactive) | 0.55 µM (active) |
| CC(=O)C1C(=O)C(=O)N(c2ccc([N+](=O)[O-])cc2)C1=O (stereo not given) | > 100 µM (inactive) | > 100 µM (inactive) | > 100 µM (inactive) | > 100 µM (inactive) | > 100 | > 100 µM (inactive) | > 100 µM (inactive) | > 100 µM (inactive) | > 100 µM (inactive) | > 100 µM (inactive) | > 100 µM (inactive) | > 100 µM (inactive) | > 100 µM (inactive) | 52.7 µM (inactive) | > 100 µM (inactive) | > 100 µM (inactive) | > 100 µM (inactive) | > 100 µM (inactive) | > 100 µM (inactive) |
| CSC1=Nc2ccccc2-c2nc3ccccc3cc2C1 | > 100 µM (inactive) | > 100 µM (inactive) | > 100 µM (inactive) | > 100 µM (inactive) | > 100 | > 100 µM (inactive) | > 100 µM (inactive) | > 100 µM (inactive) | > 100 µM (inactive) | > 100 µM (inactive) | > 100 µM (inactive) | > 100 µM (inactive) | > 100 µM (inactive) | > 100 µM (inactive) | > 100 µM (inactive) | > 100 µM (inactive) | > 100 µM (inactive) | > 100 µM (inactive) | > 100 µM (inactive) |
| Clc1c(C(Cl)(Cl)Cl)nsc1N1CCCCC1 | 19.4 µM (inactive) | 16.5 µM (inactive) | 28.4 µM (inactive) | 24.3 µM (inactive) | 26.5 | 23 µM (inactive) | 16.2 µM (inactive) | 21 µM (inactive) | 23.8 µM (inactive) | 20.9 µM (inactive) | 15.1 µM (inactive) | 20.8 µM (inactive) | 25.6 µM (inactive) | 31 µM (inactive) | 16 µM (inactive) | 23.5 µM (inactive) | 23.3 µM (inactive) | 22 µM (inactive) | 11.4 µM (inactive) |
